Columns and labels:
Assay type in all cases: cell-based
[1] = molecular target: T1, 17-beta-hydroxysteroid dehydrogenase type 2 (Homo sapiens) (UniProt P37059); assay: Inhibitory activity against 17 beta hydroxysteroid dehydrogenase type 2 at 10 uM in MDA-MB-231 cells
T1 sequence (whole entry): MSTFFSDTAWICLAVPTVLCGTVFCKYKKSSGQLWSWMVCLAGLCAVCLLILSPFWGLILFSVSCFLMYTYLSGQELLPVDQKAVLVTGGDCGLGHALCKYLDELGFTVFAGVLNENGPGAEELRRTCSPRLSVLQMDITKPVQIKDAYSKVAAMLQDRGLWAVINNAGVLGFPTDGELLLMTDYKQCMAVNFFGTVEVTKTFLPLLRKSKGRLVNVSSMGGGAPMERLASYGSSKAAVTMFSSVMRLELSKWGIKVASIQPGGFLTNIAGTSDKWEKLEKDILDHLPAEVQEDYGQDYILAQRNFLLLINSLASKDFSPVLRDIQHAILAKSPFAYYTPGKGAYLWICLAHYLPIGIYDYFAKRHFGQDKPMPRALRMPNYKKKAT

[2] = molecular target: T2, 17-beta-hydroxysteroid dehydrogenase type 1 (Homo sapiens, UniProt P14061); assay: Inhibitory activity against 17 beta hydroxysteroid dehydrogenase type 1 in T47D cells
T2 sequence (P14061 whole entry): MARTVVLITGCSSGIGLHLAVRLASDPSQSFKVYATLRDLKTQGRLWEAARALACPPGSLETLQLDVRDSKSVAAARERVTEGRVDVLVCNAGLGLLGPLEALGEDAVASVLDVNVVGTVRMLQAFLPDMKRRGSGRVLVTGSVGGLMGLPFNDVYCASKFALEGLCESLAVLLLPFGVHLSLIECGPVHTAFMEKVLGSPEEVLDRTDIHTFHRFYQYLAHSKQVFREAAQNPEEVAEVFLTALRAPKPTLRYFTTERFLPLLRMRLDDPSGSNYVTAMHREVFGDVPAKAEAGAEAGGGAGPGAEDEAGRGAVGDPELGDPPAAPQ

[3] = molecular target: T3, 17-beta-hydroxysteroid dehydrogenase type 1 (Homo sapiens) (UniProt P14061); assay: Inhibitory activity against 17 beta hydroxysteroid dehydrogenase type 1 at 10 uM in T47D cells
T3 sequence (whole entry): T2 sequence (P14061 whole entry)

SMILES	inhibition [1]	IC50 [2]	inhibition [3]
C[C@]12CC[C@@H]3c4ccc(O)cc4CCC3[C@@H]1CC(CC(=O)NCc1cccnc1)C2=O (single isomer, unassigned)	26%	37 nM	97%
CCc1cc2c(cc1O)CCC1[C@@H]2CC[C@]2(C)C(=O)C(CC(=O)NCc3cccnc3)C[C@@H]12 (single isomer, unassigned)	-5%	27 nM	99%
COc1cc2c(cc1O)CCC1[C@@H]2CC[C@]2(C)C(=O)C(CC(=O)NCc3cccnc3)C[C@@H]12 (single isomer, unassigned)	0%	290 nM	96%

— ChEMBL document CHEMBL1143588, “Novel and potent 17beta-hydroxysteroid dehydrogenase type 1 inhibitors” (J Med Chem, 2005)
